How the values were obtained:
[1] = Stability of the compound in DMEM assessed as compound remaining after 40 mins by RP-HPLC analysis in presence of fetal bovine serum; type: physicochemical; settings: cattle, DMEM with fetal bovine serum; read-out: Stability
[2] = Half life in DMEM by RP-HPLC analysis in presence of fetal bovine serum; type: ADME; settings: cattle, DMEM with fetal bovine serum
[3] = Half life in human HeLa cell cytosolic extract by RP-HPLC analysis; type: ADME, cell-based, Cytosol

Row | remaining at 40 min [1] | half-life [2] | half-life [3] | Compound
1 | 35% | 0.367 h | 10 h | CO[C@@H]1[C@H](O)[C@@H](COP(=O)([O-])OP(=O)(O)CP(=O)(O)OC[C@H]2O[C@@H](n3c[n+](C)c4c(=O)[nH]c(N(C)C)nc43)[C@H](O)[C@@H]2O)O[C@H]1n1cnc2c(N)ncnc21
2 | 15% | 0.217 h | 10 h | CO[C@@H]1[C@H](O)[C@@H](COP(=O)(O)OP(=O)([O-])OP(=O)(O)OC[C@H]2O[C@@H](n3c[n+](C)c4c(=O)[nH]c(N(C)C)nc43)[C@H](O)[C@@H]2O)O[C@H]1n1cnc2c(N)ncnc21
3 | 52% | 0.583 h | 120 h | CO[C@@H]1[C@H](O)[C@@H](COP(=O)(O)CP(=O)(O)OP(=O)([O-])OC[C@H]2O[C@@H](n3c[n+](C)c4c(=O)[nH]c(N(C)C)nc43)[C@H](O)[C@@H]2O)O[C@H]1n1cnc2c(N)ncnc21

— ChEMBL document CHEMBL3091282, “Synthesis and evaluation of stability of m3G-CAP analogues in serum-supplemented medium and cytosolic extract” (Bioorg Med Chem, 2013)
